Experimental data taken from a melting point compilation (Tetko et al.; mined from patent text by program, amines drawn as free bases though some values may be those of a salt).

Row | melting point | SMILES
1 | 260 to 261 °C | O=C1Nc2ccccc2Nc2nc(-c3ccccc3)ncc21
2 | 125 to 132 °C | Cc1ccc(C)n1-c1c(C(C)C)cc([N+](=O)[O-])cc1C(C)C
3 | 84 to 86 °C | COCC1OC(n2cnc3c(NCc4cccc(I)c4)nc(Cl)nc32)C(O)C1O (configuration not stated)
4 | 128 to 129 °C | Cn1c(CNCC2CCOC2)cc2cc(NC(=O)c3ccc(OC[C@@H]4CCCO4)cc3)ccc21 (some centres not stated)
5 | 97 to 98 °C | ClCCCn1cc2cc(OCc3ccccc3)ccc2n1
6 | 194 to 197 °C | CCc1noc(C)c1-c1[nH]c2ccccc2c1CC(=O)O
7 | 170 to 172 °C | CCC(=O)Oc1ccc2c(c1)CCC(CN1CCC(O)(c3ccccc3)CC1)C2=O (configuration not stated)
8 | 112 °C | CNC(=O)c1ccc(F)c2c1CC(N(CCCCc1c[nH]c3ccc(F)cc13)CC1CC1)CO2 (configuration not stated)
9 | 120 °C | Cc1c(-c2ccc(F)cc2)c(-c2ccc(S(N)(=O)=O)cc2)c2n1CCC2
10 | 48 to 49 °C | CCc1nc2cnc3ccccc3c2s1
11 | 138 to 139 °C | CC(C)c1cc(-c2ccc(F)cc2)nc(N(C)S(C)(=O)=O)n1
12 | 181 °C | O=C(Nc1cccc(C(F)(F)F)c1)N1CCc2cc(Oc3cc(Cl)ncn3)ccc21
13 | 166 to 168 °C | O=C1N(Cc2ccc(F)cc2)Cc2cncn2C1(Cc1ccccc1)c1ccc(Br)cc1 (configuration not stated)
14 | > 300 °C | Cc1nc(-n2ccc(N3CCNC3=O)cc2=O)sc1C(=O)NCc1ccccc1
15 | 95.7 to 96.1 °C | CCc1cc(-c2[nH]c3ccccc3c2C)cc(CC)c1OC
16 | 125 to 127 °C | COc1ccc2c(c1)C(=O)c1cccc(OC)c1-2
17 | 140 to 145 °C | CC1(C)Cc2cccc(Oc3c(Cl)cc(N)cc3Cl)c2O1
18 | 233 to 234 °C | O=c1cc2c(nn1-c1ccc(Cl)cc1)-c1ccccc1S(=O)CC2 (configuration not stated)
19 | 236 to 238 °C | CC1NC(=O)NN=C1c1ccc(OCC(=O)NCCN2CCN(S(C)(=O)=O)CC2)c(Cl)c1 (configuration not stated)
20 | 157 to 158 °C | CSc1ccc(-c2nn(Cc3ccccc3)c(=O)cc2-c2ccccc2)cc1
21 | 122 to 125 °C | CS(=O)(=O)c1ccc(-c2cccn2-c2ccc(F)cc2F)cc1
22 | 230 °C | N#Cc1ccc(C(=O)N[C@H]2CC[C@H](CCN3CCC(c4cccc5c4CCO5)CC3)CC2)cc1

Row | melting point | SMILES
23 | 238 to 240 °C | O=C1CCC(N2Cc3cc(CNC(=O)Nc4ccc(Cl)c(Cl)c4)ccc3C2=O)C(=O)N1 (configuration not stated)
24 | > 250 °C | NCC1Cc2cc(Cl)cc(-c3ccoc3)c2O1 (configuration not stated)
25 | 229 to 233 °C | O=C1c2ccc(N=CN3CCCCC3)cc2C(=O)c2ccc(N=CN3CCCCC3)cc21
26 | 188 to 189 °C | Cn1cc2c(n1)Nc1ccc(F)cc1N=C2N1CCN(CC2CC2)CC1
27 | 129 to 132 °C | Cc1cc(C)c(/C=C2\C(=O)N(CN3CCCC3)c3ccccc32)[nH]1
28 | 246 to 247 °C | CCc1nnc2nc(-c3ccccc3)ccn12
29 | 125 to 126 °C | CC(C)N1CCC(Oc2ccc3[nH]ncc3c2)CC1
30 | 211 to 212 °C | O=C(c1cc(-c2ccc(F)cc2)c(-c2ccc(F)cc2)[nH]1)C(F)(F)F
31 | 262 to 264 °C | COc1cc(C)cc2nc(S(=O)(=O)Nc3cc(C)cnc3F)nn12
32 | 163 to 164 °C | CC(C)Cn1nc(-c2ccc(F)c(F)c2)cc(C(=O)O)c1=O
33 | 132 °C | COn1nnc2ccc(Cn3ccnc3)cc21
34 | 111 to 112 °C | CCOCc1nc2c(N)nc3cccnc3c2n1CCCON=C1CCN(C)CC1
35 | 161 to 163 °C | COc1ccc(C(Cc2ccncc2)c2ccc(C(=O)O)cc2)cc1OC1CCCC1 (configuration not stated)
36 | 108 °C | CNC(=O)C1CCN(S(=O)(=O)c2ccc(Cl)c(COc3cccc4c(-n5ccnc5)cc(C)nc34)c2Cl)C1 (configuration not stated)
37 | 93 to 95 °C | Cn1nc(C(=O)OCC23CCCN(CC2)C3)c2ccccc21 (configuration not stated)
38 | 85 to 91 °C | CC(C)c1cc(-c2ccc(F)c3ccccc23)nc(NCCNS(C)(=O)=O)n1
39 | 155 to 156 °C | NC(=O)NC[C@@H]1CCCc2cc(S(=O)(=O)c3cccc(F)c3)ccc21
40 | 132 to 134 °C | CC(C)N(C(=O)COc1ccc(-c2ccc(C(=O)O)cc2C(F)(F)F)cc1)C(C)C
41 | 143 to 146 °C | COc1ccc(N2CCN(c3ccc(OC)nc3-c3ccc(C)cc3)CC2)cc1
42 | 156 to 158 °C | CC(=O)NCC1CC1c1c(-c2ccccc2)ccc2nn(C)cc12 (configuration not stated)
43 | 89.5 °C | Nc1cc(F)c(N2CCOCC2)cc1Cl

More lines, now with the values behind:

Row | SMILES | melting point
44 | N#CC1=C(Nc2ccc(Cl)cc2[N+](=O)[O-])CSC1 | 154 to 155 °C
45 | CCCCCCCCCc1c(O)nc(-c2ccc(-c3ccc(CCCCC)cc3F)cc2)nc1O | 51 °C
46 | COc1cc(C=O)c(OC)c(C)c1C | 69 to 71 °C
47 | COC(=O)COc1cccc2c1CCC(Cc1coc(C(c3ccccc3)c3ccccc3)n1)C2 (configuration not stated) | 91 to 93 °C
48 | O=c1c(CCCc2ccncc2)cc2cccnc2n1-c1ccc2nonc2c1 | 192 to 194 °C
49 | O=C(CCCl)n1ccc2ccccc21 | 67 °C
50 | CSc1nn(C(=O)NC(C)CCl)c(=O)n1N (configuration not stated) | 136 °C
51 | CCCCC(=N)NC(=O)Nc1cccc(C(F)(F)F)c1 | 167 to 169 °C
52 | COC(=O)c1c(C(=O)OC)c(-c2ccc(OC)c(OC)c2)c2sccc2c1O | 147 to 148 °C
53 | CCOC(=O)c1cnc2cc(C)sc2c1O | 240 to 245 °C
54 | Fc1ccc(-c2ccc(-c3cn([C@H]4CN5CCC4CC5)nn3)cc2)cn1 | 181 °C
55 | Cc1cc(CC(=O)O)cc(Cc2nc3c(F)c(F)cc(F)c3s2)c1 | 127 to 129 °C
56 | CCOC(=O)C=C(C)Nc1ccc(F)c(OCc2ccccc2)c1 | 79 to 80 °C
57 | CC(C)(C)OC(=O)N1C[C@H](NS(=O)(=O)c2ccc(Cl)cc2)C[C@H]1C=O | 120 to 122 °C
58 | O=C(OCC1CC1)c1ncn2c1[C@@H]1CCCN1C(=O)c1cc(F)ccc1-2 | 140 to 142 °C
59 | N#Cc1nn(-c2c(Cl)cc(C(F)(F)F)cc2Cl)c(N)c1-c1ccc2c(c1)OCO2 | 222 °C
60 | O=C(O)CN1CCN(Cc2ccccc2)C1=O | 132 to 133 °C
61 | COc1cc2c(cn1)C(=O)N(C(C)C)C2=O | 150 to 152 °C
62 | COC(Oc1cc(Cl)c(Cl)c(Cl)c1)C(=O)O (configuration not stated) | 101 to 104 °C
63 | Cc1oc(C=Cc2ccccc2Cl)nc1C(=O)O | 223 to 224 °C

Row | SMILES | melting point
64 | O=C(O)Cn1cc(Cc2nc3c(F)c(F)cc(F)c3s2)c2cc(OCc3ccccc3)ccc21 | 165 to 168 °C
65 | CCCC(=O)c1cc(OC)c(O)c([N+](=O)[O-])c1 | 92 to 93 °C
66 | CCOC(=O)c1cc(=O)c(O)c(-c2ccc(O)cc2)o1 | 228 to 232 °C
67 | CC(C)S(=O)(=O)Nc1ccc(Br)cc1 | 98 to 100 °C
68 | ON=C1CCCCC1=Cc1ccccc1 | 114 to 115 °C
69 | CN(Cc1cc2c(=O)c(C(=O)NCc3ccc(Cl)cc3)cn(C)c2o1)CC(O)c1ccco1 (configuration not stated) | 94 to 101 °C
70 | COc1ccc2cc(C(C)C)ccc2c1 | 63.5 to 64.5 °C
71 | COc1cc2c(cc1S(=O)(=O)Cl)CCC2 | 75 to 77 °C
72 | c1ccc(-c2cc3ncnc(Nc4ccc(NCc5c[nH]c6ccccc56)cc4)c3s2)cc1 | 259 to 261 °C
73 | CC(=NCCO)C1CCC2C3CCC4CC(O)C(N5CCOC(C)C5)CC4(C)C3CCC12C (configuration not stated) | 162 to 165 °C
74 | COc1ccc(NN=C(Sc2ccc(C(C)(C)C)cc2)C(C)=O)cc1 | 111 to 113 °C
75 | ClCc1cc(Cl)nc(Cl)n1 | 32 to 33 °C
76 | COc1cc(C(C)C)c2c(c1)S(=O)(=O)N(COC(=O)c1c(C)cc(C)cc1C)C2=O | 137 to 138 °C
77 | N#Cc1coc2cc(O)ccc2c1=O | 292 to 293 °C
78 | OCC(Br)c1ccccc1 (configuration not stated) | 38 to 39 °C
79 | N#Cc1cncc(-c2ccc(OCc3ccccc3)cc2)c1Nc1ccc2[nH]ccc2c1 | 163 to 165 °C
80 | O=C(Nc1c(C(O)(C(F)(F)F)C(F)(F)F)ccc2ccccc12)c1ccc(C(F)(F)F)cc1 | 191 to 192 °C
81 | Cc1cc(-c2cc(C(F)(F)F)nc(-c3ccnc(-c4ccc(S(N)(=O)=O)s4)c3)n2)ccc1Cl | 280 °C
82 | O=S1(=O)NCN(CCF)c2cc(F)c(F)cc21 | 128 to 130 °C
83 | C=C(C)C(=O)OCCCCCc1ccc(C(F)(F)Oc2ccc(OC(F)(F)c3ccc(CCCCCOC(=O)C(=C)C)cc3)c(C)c2)cc1 | 26 °C

Row | SMILES | melting point
84 | COc1ccc(-c2[nH]ccc2S(=O)(=O)C(F)(F)F)cc1 | 138 to 140 °C
85 | COC(=O)c1ccc2ccn(Cc3ccc(OCc4ccc5ccccc5n4)cc3)c2c1 | 125 to 126 °C
86 | CN(C)C(=O)N(O)Cc1cc2ccccc2s1 | 145 to 147 °C
87 | Cc1cc(C#N)cc(CNc2c(NC(C)C(C)(C)C)c(=O)c2=O)c1 (configuration not stated) | 244 to 247 °C
88 | CC(O)CCCCc1ccc(-c2ccccc2)cc1 (configuration not stated) | 71 to 72 °C
89 | CCCCCCCCCCCCCCCCCCOC(=O)N(N)C(=O)c1cc(O)ccc1O | 163 °C
90 | COC(=O)c1ccc(-c2cccc(OCc3ccc(COC(=O)c4ccccc4)c(COC(=O)c4ccccc4)c3)c2)cc1 | 71 to 72 °C
91 | COc1cccc(COC(=O)c2ncn3c2[C@@H]2CCN2C(=O)c2c(Cl)cccc2-3)c1 | 126 to 127 °C
92 | CC(C)COC(=O)C(C#N)=CNCCc1ccco1 | 42 to 44 °C
93 | CCOC(=O)/C=C/c1cc2c(Nc3ccc4[nH]ccc4c3)c(C#N)cnc2s1 | 226 °C
94 | CCOC(=O)C1=CC(=O)C2(C(=O)c3ccc(Cl)cc3)OC2O1 (configuration not stated) | 100 °C
95 | COc1ccc2c(c1)C(=O)NC(C(Cl)(Cl)Cl)O2 (configuration not stated) | 162 to 165 °C
96 | CCCOC(=O)c1c(Cn2ccnc2)nc2cc(OC)c(OC)cc2c1-c1ccc(OC)c(OC)c1 | 166 to 168 °C
97 | O=P1(O)Oc2c(Cl)cc(Cl)cc2-c2ccc(Cl)cc21 | 260 °C
98 | NC(CCNc1ccccc1)=NO | 91 to 91.5 °C
99 | CC1(C)c2ccccc2C(C)(C)C1(S)CC#N | 113 to 114 °C
100 | CC(=O)NC(=NNNc1ccccc1[N+](=O)[O-])c1ccccc1Cl | 196 to 198 °C
101 | COC(=O)CCC#Cc1ccc(C(=C2CC(C)(C)CC(C)(C)C2)c2ccc(O)cc2)cc1 | 159 to 160 °C
102 | COCC(=O)Nc1c(C(O)(C(F)(F)F)C(F)(F)F)ccc2ccccc12 | 120 to 121 °C
